Results from ChEMBL document CHEMBL4842341, “Discovery of IACS-9779 and IACS-70465 as Potent Inhibitors Targeting Indoleamine 2,3-Dioxygenase 1 (IDO1) Apoenzyme” (J Med Chem, 2021).
One block for each compound: values may come before it.

What was measured:
in vitro [1] = details: human, liver microsomes
in vivo [2] = details: CD1, mouse, iv, 0.3 mg/kg
in vivo [3] = details: CD1, mouse, iv, 0.3 mg/kg; remark: listed apart in the source
in vivo [4] = details: CD1, mouse, iv, 0.3 mg/kg; remark: listed apart in the source
in vivo [5] = details: CD1, mouse, po, 10 mg/kg
in vivo [6] = details: CD1, mouse, po, 10 mg/kg; remark: listed apart in the source
in vivo [7] = details: CD1, mouse, iv, 0.3 mg/kg; remark: listed apart in the source
in vitro [8] = details: rat, liver microsomes
in vivo [9] = details: NSG, mouse, tumor, po, 125 mg/kg
in vivo [10] = details: NSG, mouse, plasma, po, 125 mg/kg
[11] = Apparent permeability across apical side to basolateral side in wild type MDCK cells; type: ADME, cell-based, Canis lupus familiaris; details: dog
[12] = Half life in mouse plasma; type: ADME, cell-free
[13] = Apparent permeability across apical side to basolateral side in MDCK-MDR1 cells; type: ADME, cell-based, Canis lupus familiaris; details: dog
[14] = Apparent permeability across basolateral side to apical side in MDCK-MDR1 cells; type: ADME, cell-based, Canis lupus familiaris; details: dog
[15] = Apparent permeability across basolateral side to apical side in MDCK cells; type: ADME, cell-based, Canis lupus familiaris; details: dog
in vivo [16] = details: NSG, mouse, tumor, po, 125 mg/kg; remark: listed apart in the source
in vivo [17] = details: NSG, mouse, plasma, po, 125 mg/kg; remark: listed apart in the source
in vivo [18] = details: CD-1, mouse, iv, 0.3 mg/kg
in vivo [19] = details: CD-1, mouse, iv, 0.3 mg/kg; remark: listed apart in the source
in vivo [20] = details: CD-1, mouse, iv, 0.3 mg/kg; remark: listed apart in the source
in vivo [21] = details: CD-1, mouse, iv, 0.3 mg/kg; remark: listed apart in the source
in vivo [22] = details: NSG, mouse, tumor, po, 125 mg/kg; remark: listed apart in the source
[23] = Drug concentration in tumor of NSG mouse xenografted with human SKOV3 cells at 200 mg/kg, po BID measured after 12 hrs by LC-MS analysis; type: ADME, organism-based, Neoplasm, SK-OV-3; details: read-out: Drug uptake
in vivo [24] = details: CD-1, mouse, po, 10 mg/kg
in vivo [25] = details: NSG, mouse, plasma, po, 125 mg/kg; remark: listed apart in the source
in vivo [26] = details: CD-1, mouse, po, 10 mg/kg; remark: listed apart in the source
[27] = Drug concentration in plasma of NSG mouse xenografted with human SKOV3 cells at 200 mg/kg, po BID measured after 12 hrs by LC-MS analysis; type: ADME, organism-based, SK-OV-3

SMILES: CCC(NC(=O)c1ccc(Cl)cc1)[C@H]1[C@@H]2C[C@@H](n3cc(C4CC4)nn3)C[C@@H]21 (stereo not given in full)
CLint scaled at 0.75 h, 1 µM (in vitro [1]): 6.5 mL/min/kg
half-life (in vivo [2]): 2.7 h
clearance (in vivo [3]): 4.67 mL/min/kg
Vd (in vivo [4]): 1.04 L/kg
bioavailability (in vivo [5]): 22%
Cmax (in vivo [6]): 1500 nM
AUC(0-inf) (in vivo [7]): 2.8 µM·h

SMILES: O=C(C[C@H]1CC[C@@H](Oc2ccnc3ccccc23)CC1)Nc1ccc(Cl)cc1
CLint scaled at 0.75 h, 1 µM (in vitro [1]): 44 mL/min/kg
CLint scaled at 0.75 h, 1 µM (in vitro [8]): 455 mL/min/kg

SMILES: O=C(Nc1ccc(Cl)cc1)C1CC12CCC(Oc1ccnc3ccccc13)CC2 (stereo not given)
CLint scaled at 0.75 h, 1 µM (in vitro [1]): 171 mL/min/kg
CLint scaled at 0.75 h, 1 µM (in vitro [8]): 137 mL/min/kg

SMILES: CC[C@@H](NC(=O)c1ccc(Cl)c(F)c1)[C@H]1[C@@H]2C[C@@H](n3cnc4cc(F)c(F)cc43)C[C@@H]21
concentration at 120 h (in vivo [9]): 11000 nM
concentration at 120 h (in vivo [10]): 4100 nM

SMILES: O=C(C[C@H]1CC[C@@H](c2ccccc2)CC1)Nc1ccc(Cl)cc1
CLint scaled at 0.75 h, 1 µM (in vitro [1]): 681 mL/min/kg
CLint scaled at 0.75 h, 1 µM (in vitro [8]): 884 mL/min/kg

SMILES: Fc1cc2ncn([C@H]3C[C@@H]4[C@@H](CNC(c5ccc(Cl)cc5)C(F)(F)F)[C@@H]4C3)c2cc1F (stereo not given in full)
CLint scaled at 0.75 h, 1 µM (in vitro [1]): 100 mL/min/kg

SMILES: CC(C(=O)Nc1ccc(Cl)cc1)N1CC(COc2ccnc3ccccc23)C1 (stereo not given)
CLint scaled at 0.75 h, 1 µM (in vitro [1]): 227 mL/min/kg
CLint scaled at 0.75 h, 1 µM (in vitro [8]): 526 mL/min/kg

SMILES: NS(=O)(=O)NCCNc1nonc1C(=NO)Nc1ccc(F)c(Br)c1 [EPACADOSTAT]
AUC(0-inf) at 24 h (in vivo [18]): 0.21 µM·h
Vd at 24 h (in vivo [19]): 7.5 L/kg
half-life at 24 h (in vivo [20]): 1.6 h
CLint scaled at 0.75 h, 1 µM (in vitro [8]): 32 mL/min/kg
clearance at 24 h (in vivo [21]): 53.3 mL/min/kg
concentration at 120 h (in vivo [22]): 3200 nM
concentration at 12 h [23]: 5000 nM
bioavailability at 24 h (in vivo [24]): 50%
concentration at 120 h (in vivo [25]): 100 nM
Cmax at 24 h (in vivo [26]): 2000 nM
concentration at 12 h [27]: 690 nM

SMILES: O[C@H](C[C@H]1c2c(F)cccc2-c2cncn21)[C@H]1CC[C@H](O)CC1 [NAVOXIMOD]
CLint scaled at 0.75 h, 1 µM (in vitro [1]): 11 mL/min/kg
CLint scaled at 0.75 h, 1 µM (in vitro [8]): 39 mL/min/kg

SMILES: O=C1CC(c2c[nH]c3ccc(F)cc23)C(=O)N1 (stereo not given) [PF-06840003]
CLint scaled at 0.75 h, 1 µM (in vitro [1]): 2.9 mL/min/kg
CLint scaled at 0.75 h, 1 µM (in vitro [8]): 7.2 mL/min/kg

Further lines, results first:

CLint scaled at 0.75 h, 1 µM (in vitro [1]): 8.8 mL/min/kg
SMILES: CCC(NC(=O)c1ccc(Cl)cc1)[C@H]1[C@@H]2C[C@@H](n3cnc4ccncc43)C[C@@H]21 (stereo not given in full)

CLint scaled at 0.75 h, 1 µM (in vitro [1]): 11.8 mL/min/kg
SMILES: CCC(NC(=O)c1ccc(Cl)cc1)[C@H]1[C@@H]2C[C@@H](n3cnc4ccc(F)cc43)C[C@@H]21 (stereo not given in full)

CLint scaled at 0.75 h, 1 µM (in vitro [1]): 32 mL/min/kg
SMILES: CCC(NC(=O)c1ccc(Cl)cc1)[C@@H]1[C@@H]2C[C@H](Oc3ccnc4cc(F)ccc34)C[C@@H]21 (stereo not given in full)

CLint scaled at 0.75 h, 1 µM (in vitro [1]): 54 mL/min/kg
SMILES: CCC(NC(=O)c1ccc(Cl)cc1)[C@@H]1[C@@H]2C[C@H](Oc3ccnc4ccncc34)C[C@@H]21 (stereo not given in full)

CLint scaled at 0.75 h, 1 µM (in vitro [1]): 23 mL/min/kg
Papp A→B [11]: 3.63 ×10⁻⁶ cm/s
half-life [12]: 12.8 h
Papp A→B [13]: 1.86 ×10⁻⁶ cm/s
CLint scaled at 0.75 h, 1 µM (in vitro [8]): 14 mL/min/kg
Papp B→A [14]: 1.4 ×10⁻⁶ cm/s
Papp B→A [15]: 1.73 ×10⁻⁶ cm/s
SMILES: CCC(NC(=O)c1ccc(Cl)cc1)[C@@H]1[C@@H]2C[C@@H](Oc3ccnc4ccccc34)C[C@@H]21 (stereo not given in full)

CLint scaled at 0.75 h, 1 µM (in vitro [1]): 38 mL/min/kg
SMILES: O=C(NC[C@@H]1[C@H]2C[C@@H](Oc3ccnc4ccc(F)cc34)C[C@@H]12)c1ccc(Cl)cc1

CLint scaled at 0.75 h, 1 µM (in vitro [1]): 14 mL/min/kg
SMILES: CCC(NC(=O)c1ccc(Cl)cc1)[C@@H]1[C@@H]2C[C@H](Oc3ccnc4cccnc34)C[C@@H]21 (stereo not given in full)

CLint scaled at 0.75 h, 1 µM (in vitro [1]): 39 mL/min/kg
SMILES: O=C(NC[C@H]1[C@H]2C[C@@H](Oc3ccnc4ccc(F)cc34)C[C@@H]12)c1ccc(Cl)cc1

half-life (in vivo [2]): 15 h
clearance (in vivo [3]): 0.233 mL/min/kg
Vd (in vivo [4]): 0.27 L/kg
bioavailability (in vivo [5]): 146%
Cmax (in vivo [6]): 51000 nM
AUC(0-inf) (in vivo [7]): 51 µM·h
SMILES: CCC(NC(=O)c1ccc(Cl)cc1)[C@@H]1[C@@H]2C[C@H](Oc3ccnc4ccc(F)cc34)C[C@@H]21 (stereo not given in full)

concentration at 120 h (in vivo [16]): 2300 nM
concentration at 120 h (in vivo [17]): 600 nM
SMILES: CC[C@@H](NC(=O)c1ccc(Cl)cc1)[C@H]1[C@@H]2C[C@@H](n3cnc4ccc(F)cc43)C[C@@H]21 (stereo in doubt; 56)
